Patent publication US6462069B2, “Compounds, pharmaceutical compositions, and methods for inhibiting protein kinases” (Agouron Pharmaceuticals, Inc., priority 2000, dated 2002)

Experiments:
Format in all cases: biochemical
[1] = target: T1, VEGF-R2 (VEGF-R2Δ50 construct) (Homo sapiens, UniProt P35968, DEL940-989/E990V); experiment: VEGF-R2 assay; conditions: read-out: Percent Inhibition VEGF
T1 construct: VEGF-R2Δ50 contains residues 806-939 and 990-1171; made in house; host or cells: baculovirus/insect cell system
T1 sequence (P35968 with tags, fused parts or gaps DEL940-989/E990V limits assumed): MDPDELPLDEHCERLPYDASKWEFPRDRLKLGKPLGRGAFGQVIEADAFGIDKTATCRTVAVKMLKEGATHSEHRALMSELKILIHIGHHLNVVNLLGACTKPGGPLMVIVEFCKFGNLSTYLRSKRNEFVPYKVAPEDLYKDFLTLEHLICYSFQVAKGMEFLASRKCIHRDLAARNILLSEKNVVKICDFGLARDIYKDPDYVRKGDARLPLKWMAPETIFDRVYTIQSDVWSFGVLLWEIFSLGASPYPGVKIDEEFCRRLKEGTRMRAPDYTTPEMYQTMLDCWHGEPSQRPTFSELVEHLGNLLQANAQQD
Excerpt: This construct determines the ability of a test compound to inhibit tyrosine kinase activity. A construct (VEGF-R2Δ50) of the cytosolic domain of human vascular endothelial growth factor receptor 2 (VEGF-R2) lacking the 50 central residues of the 68 residues of the kinase insert domain was expressed in a baculovirus/insect cell system. This construct is described by McTigue et al. in Structure, vol. 7, pp. 319-330 (1999) and co-pending U.S. patent application Ser. No. 09/390,326, filed Sep. 7, 1999. Of the 1356 residues of full-length VEGF-R2, VEGF-R2Δ50 contains residues 806-939 and 990-1171, and also one point mutation (E990V) within the kinase insert domain relative to wild-type VEGF-R2. […]
The production of ADP from ATP that accompanies phosphoryl transfer was coupled to oxidation of NADH using phosphoenolpyruvate (PEP) and a system having pyruvate kinase (PK) and lactic dehydrogenase (LDH). The oxidation of NADH was monitored by following the decrease of absorbance at 340 nm (e340=6.22 cm^−1 mM^−1) using a Beckman DU 650 spectrophotometer. […] Ki values were determined by measuring enzyme activity in the presence of varying concentrations of test compounds. The data were analyzed using Enzyme Kinetic and Kaleidagraph software.
Formation of phosphogastrin was monitored using biotinylated gastrin peptide (1-17) as substrate. […]

CDK4/cyclin D3 complex = target: T2, CDK4/cyclin D3 complex (Homo sapiens, UniProt P11802); experiment: Inhibition of CDK4/Cyclin D retinoblastoma kinase activity; conditions: apparent Ki
T2 construct: made in house; host or cells: insect cells co-infected with baculovirus expression vectors
T2 sequence (P11802 whole entry): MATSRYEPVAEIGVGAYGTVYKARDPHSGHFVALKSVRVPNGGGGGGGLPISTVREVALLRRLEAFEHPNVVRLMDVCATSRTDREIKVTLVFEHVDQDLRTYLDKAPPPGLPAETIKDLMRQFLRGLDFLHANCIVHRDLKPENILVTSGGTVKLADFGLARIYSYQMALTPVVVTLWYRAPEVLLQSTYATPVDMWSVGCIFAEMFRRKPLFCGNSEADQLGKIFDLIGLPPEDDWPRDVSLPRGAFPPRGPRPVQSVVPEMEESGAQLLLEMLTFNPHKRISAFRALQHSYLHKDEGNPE
T2 sequence (P30281 whole entry partner): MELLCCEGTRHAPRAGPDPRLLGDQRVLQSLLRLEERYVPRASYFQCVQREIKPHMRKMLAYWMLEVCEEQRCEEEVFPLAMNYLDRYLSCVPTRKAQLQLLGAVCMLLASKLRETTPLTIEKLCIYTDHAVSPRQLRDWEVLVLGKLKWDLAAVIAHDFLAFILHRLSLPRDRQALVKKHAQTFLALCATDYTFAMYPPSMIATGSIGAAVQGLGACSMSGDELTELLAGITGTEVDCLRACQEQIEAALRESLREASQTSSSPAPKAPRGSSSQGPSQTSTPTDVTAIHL
Method: (§1) Cyclin-dependent kinase activity was measured by quantifying the enzyme-catalyzed, time-dependent incorporation of radioactive phosphate from [^32P]ATP or [^33P]ATP into a protein substrate. Unless noted otherwise, assays were performed in 96-well plates in a total volume of 50 μL, in the presence of 10 mM HEPES (N-[2-hydroxyethyl]piperazine-N′-[2-ethanesulfonic acid]) (pH 7.4). 10 mM MgCI2, 25 μM adenosine triphosphate (ATP), 1 mg/mL ovalbumin, 5 μg/mL leupeptin, 1 mM dithiothreitol, 10 mM beta-glycerophosphate, 0.1 mM sodium vanadate, 1 mM sodium fluoride, 2.5 mM ethylene glycol-bis(β-aminoethyl ethKer)-N,N,N′N′-tetraacetic acid (EGTA), 2% (v/v) dimethylsulfoxide, and 0.03-0.4 μCi [^32/33P]ATP per reaction. Reactions were initiated with enzyme, incubated at 30° C. and terminated after 20 minutes by the addition ofethylenediaminetetraacetic acid (EDTA) to 250 mM. The phosphorylated substrate was then captured on a nitrocellulose or phosphocellulose membrane using a 96-well filtration manifold, and unincorporated radioactivity was removed by repeated washing with 0.85% phosphoric acid. Radioactivity was quantified by exposing the dried membranes to a phosphorimager.
(§2) Apparent Ki values were measured by assaying enzyme activity in the presence of different inhibitor compound concentrations and subtracting the background radioactivity measured in the absence of enzyme. Inhibition data were fit to an equation for competitive inhibition using Kaleidagraph (Synergy Software), or were fit to an equation for competitive tight-binding inhibition using the software KineTic (BioKin, Ltd.).
A complex of human CDK4 and cyclin D3, or a complex of human CDK4 and genetically truncated (1-264) cyclin D3, was purified using traditional biochemical chromatographic techniques from insect cells that had been co-infected with the corresponding baculovirus expression vectors ((see e.g., Meijer and Kim, “Chemical Inhibitors of Cyclin-Dependent Kinases,” Methods in Enzymol,. vol. 283, pp. 113-128 (1997)). The enzyme complex (5 or 50 nM) was assayed with 0.3-0.5 μg of purified recombinant retinoblastoma protein fragment (Rb) as a substrate. The engineered Rb fragment (residues 386-928 of the native retinoblastoma protein; 62.3 kDa) contains the majority of the phosphorylation sites found in the native 106-kDa protein, as well as a tag of six histidine residues for ease of purification. Phosphorylated Rb substrate was captured by microfiltration on a nitrocellulose membrane and quantified using a phosphorimager as described above. For measurement of tight-binding inhibitors, the enzyme complex concentration was lowered to 5 nM, and the assay duration was extended to 60 minutes, during which the time-dependence of product formation was linear.

CDK2/cyclin A complex = target: T3, CDK2/cyclin A complex (Homo sapiens, UniProt P24941); experiment: Inhibition of CDK2/Cyclin A retinoblastoma kinase activity; conditions: apparent Ki
T3 construct: made in house; host or cells: CDK2: insect cells (baculovirus); cyclin A: E. coli
Method: as §1, §2
CDK2 was purified using published methodology (Rosenblatt et al., “Purification and Crystallization of Human Cyclin-dependent Kinase 2,” J. Mol. Biol., vol. 230, pp. 1317-1319 (1993)) from insect cells that had been infected with a baculovirus expression vector. […] Ki values were measured as described above.

inhibition at 5 µM [1] [%]	Ki (CDK4/cyclin D3 complex) [µM]	Ki (CDK2/cyclin A complex) [µM]	SMILES
10	26.2	25.8	c1ccc(Nc2cc(-c3cccs3)[nH]n2)cc1 [Compound A, Phenyl-(5-thiophen-2-yl-1H-pyrazol-3-yl)-amine]
21	3.1	6.2	c1ccc(Nc2cc(-c3csc4ccccc34)[nH]n2)cc1 [Compound B]
